Measured values: ChEMBL document CHEMBL1130631, “Synthesis of benzo[c]quinolizin-3-ones: selective non-steroidal inhibitors of steroid 5 alpha-reductase 1” (Bioorg Med Chem Lett, 1998)
pIC50, pKi: −log10 of the molar value. One block for each compound: values may come before it.

What was measured:
[1] = molecular target: T1, 3-oxo-5-alpha-steroid 4-dehydrogenase 2 (Homo sapiens, UniProt P31213); experiment: Compound was evaluated for the inhibition of human Steroid 5-alpha-reductase type 2 receptor from human prostate homogenates; assay type: tissue-based, Prostate gland
T1 sequence (P31213 whole entry): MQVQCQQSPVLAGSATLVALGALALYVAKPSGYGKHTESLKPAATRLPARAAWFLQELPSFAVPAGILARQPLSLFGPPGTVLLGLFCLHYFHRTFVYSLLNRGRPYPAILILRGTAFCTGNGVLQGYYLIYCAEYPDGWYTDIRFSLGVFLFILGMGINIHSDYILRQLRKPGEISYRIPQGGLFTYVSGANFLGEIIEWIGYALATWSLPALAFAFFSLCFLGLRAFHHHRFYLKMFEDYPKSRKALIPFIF

[2] = molecular target: T2, 3-oxo-5-alpha-steroid 4-dehydrogenase 1 (Homo sapiens, UniProt P18405); experiment: Compound was evaluated for the inhibition of human Steroid 5-alpha-reductase type 1 from recombinant CHO cells; assay type: cell-based
T2 sequence (P18405 whole entry): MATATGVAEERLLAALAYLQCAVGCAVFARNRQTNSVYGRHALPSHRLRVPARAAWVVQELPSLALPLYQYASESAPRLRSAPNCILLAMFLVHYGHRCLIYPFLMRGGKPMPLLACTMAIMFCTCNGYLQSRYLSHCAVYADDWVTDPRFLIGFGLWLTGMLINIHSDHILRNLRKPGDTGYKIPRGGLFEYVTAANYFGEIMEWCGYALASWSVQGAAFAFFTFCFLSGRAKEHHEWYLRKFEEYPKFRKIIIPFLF

[3] = molecular target: T2, 3-oxo-5-alpha-steroid 4-dehydrogenase 1; experiment: Compound was evaluated for the inhibition of human Steroid 5-alpha-reductase type 1
[4] = molecular target: T1, 3-oxo-5-alpha-steroid 4-dehydrogenase 2; experiment: Compound was evaluated for the inhibition of human Steroid 5-alpha-reductase type 2
[5] = molecular target: T1, 3-oxo-5-alpha-steroid 4-dehydrogenase 2; experiment: Compound was evaluated for the inhibition of human Steroid 5-alpha-reductase type 2 from human prostate homogenates.; No inhibition; assay type: tissue-based, Prostate gland
[6] = molecular target: T1, 3-oxo-5-alpha-steroid 4-dehydrogenase 2; experiment: Compound was evaluated for the inhibition of human Steroid 5-alpha-reductase type 2 from human prostate homogenates; No inhibition; assay type: tissue-based, Prostate gland
[7] = molecular target: T1, 3-oxo-5-alpha-steroid 4-dehydrogenase 2; experiment: Compound was evaluated for the inhibition of human Steroid 5-alpha-reductase type 2 receptor from human prostate homogenates.; assay type: tissue-based, Prostate gland
[8] = molecular target: T2, 3-oxo-5-alpha-steroid 4-dehydrogenase 1; experiment: Compound was evaluated for the inhibition of human Steroid 5-alpha-reductase type 1

Structure (SMILES): CC(C)(C)NC(=O)[C@H]1CC[C@H]2[C@@H]3CC[C@H]4NC(=O)C=C[C@]4(C)[C@H]3CC[C@]12C [FINASTERIDE]
pIC50 [1]: 8.92
pIC50 [2]: 6.04

pKi [3]: 8.05
pKi [4]: < 6.00
Structure (SMILES): CN1C(=O)CC[C@]2(C)c3ccc(Cl)cc3CCC12 (stereo not given in full)

IC50 [5]: Not Active
pIC50 [2]: 6.53
Structure (SMILES): O=C1C=C2CCc3ccccc3N2CC1

pIC50 [2]: 5.29
IC50 [6]: Not Active
Structure (SMILES): O=C1C=CN2c3ccccc3CCC2C1 (stereo not given)

pIC50 [7]: 6.91
pIC50 [8]: 6.90
Structure (SMILES): CC(C)(C)NC(=O)[C@@H]1CCC2C3CCC4=CC(=O)CCN4C3=CC[C@@]21C (stereo not given in full)
